For one assay, the system named is DLD1 BRCA2 (−/−) cells. Put plainly: 7-day cell viability assay (CellTiter-Glo), DLD1 BRCA2 (−/−). The assay is classed as cell-based, human. As to conditions: 7-day CellTiter-Glo, n=2, read-out: Viability IC50 (uM) DLD1 BRCA2 null. As for the experimental part: (§1) Cell lines DLD1 WT and DLD1 BRCA2 (−/−) (Horizon Discovery Cat No. HD PAR-008 and HD-105-007) were plated in 384-well culture plates at seeding densities of 100cells/50 ul/well and 200 cells/50 uL/well respectively. The seeding densities are pre-determined from the growth curve kinetics performed to ensure log linear phase of cell growth for these 2 cell lines. These assay plates are then placed in the incubator at 37° C., 5% CO2, relative humidity >90% for a few hours before addition of test compounds. Compounds are dispensed using the Tecan HPD300 or Echo based on the plate map in the appropriate wells of the 384-well plates. The cells are treated with nine-point dose response with 3-fold serial dilutions of test compounds starting at 10 uM top concentration. After addition of the test compounds, the plates are incubated at 37° C., 5% CO2, relative humidity >90% for 7 days. CellTiter-Glo (Promega Cat. No. G7573), ATP detection reagent is prepared according to manufacturer's specifications. Cell assay plates are removed from incubator and bring to room temperature (RT) by letting them sit at bench top for at least 15 min. Using the MultiDrop liquid handler or a multichannel pipette, 35 μL/well of CTG is added and the plates are then placed shakes for 5 seconds, RT.
Background: In ATP-based viability assays light output follows the ATP content of the culture.

The next assay deals with DLD1 WT cells. Briefly: 7-day cell viability assay (CellTiter-Glo), DLD1 parental (WT). The assay is classed as cell-based, human. The following applies: 7-day CellTiter-Glo, n=2. On the procedure: as §1

Read-outs that look alike come from different tables or passages of the source. A value given as a limit tells only on which side of the number the result lay.

The term IC50 denotes the point on the concentration scale where inhibition reaches its midpoint. Turning to “2′-Chloro-N-(5-(6-chloro-3-methylpyrazine-2-carbonyl)-5,6-dihydro-4H-pyrrolo[3,4-d]thiazol-2-yl)-5′-methoxy-6-methyl-[4,4′-bipyridine]-3-carboxamide [Example 505]”, the values for the IC50 in the assay on DLD1 BRCA2 (−/−) cells and with DLD1 WT cells were 0.001 to 0.1 µM and 5 to 10 µM, respectively.
As for “2′-chloro-N-(5-(2-(difluoromethyl)pyrimidine-4-carbonyl)-5,6-dihydro-4H-pyrrolo[3,4-d]thiazol-2-yl)-5′-methoxy-6-methyl-[4,4′-bipyridine]-3-carboxamide [Example 641]”, the IC50 in the assay on DLD1 BRCA2 (−/−) cells was 0.001 to 0.1 µM; with DLD1 WT cells it was ≥ 10 µM.
For “2′-chloro-N-(5-(3-chloro-5-(1,1-difluoroethyl)picolinoyl)-5,6-dihydro-4H-pyrrolo[3,4-d]thiazol-2-yl)-5′-methoxy-6-methyl-[4,4′-bipyridine]-3-carboxamide [Example 625]” the same measures were 0.1 to 0.25 µM and ≥ 10 µM.
The like results for “2′-chloro-N-(5-(4-cyano-1-methyl-1H-pyrazole-5-carbonyl)-5,6-dihydro-4H-pyrrolo[3,4-d]thiazol-2-yl)-5′-methoxy-6-methyl-[4,4′-bipyridine]-3-carboxamide [Example 581]” were, in that order, 0.001 to 0.1 µM and ≥ 10 µM.
Take “2′-chloro-N-(5-(5-chloro-2-methylisonicotinoyl)-5,6-dihydro-4H-pyrrolo[3,4-d]thiazol-2-yl)-5′-methoxy-6-methyl-[4,4′-bipyridine]-3-carboxamide [Example 519]”: the IC50 is 0.001 to 0.1 µM in the assay on DLD1 BRCA2 (−/−) cells and ≥ 10 µM in the assay with DLD1 WT cells.
The like results for “2′-chloro-N-(5-(5-chloro-4-(difluoromethyl)pyrimidine-2-carbonyl)-5,6-dihydro-4H-pyrrolo[3,4-d]thiazol-2-yl)-5′-methoxy-6-methyl-[4,4′-bipyridine]-3-carboxamide [Example 644]” were, in that order, 0.1 to 0.25 µM and ≥ 10 µM.
“2′-chloro-N-(5-(5-chloropyrimidine-2-carbonyl)-5,6-dihydro-4H-pyrrolo[3,4-d]thiazol-2-yl)-5′-(difluoromethoxy)-6-methyl-[4,4′-bipyridine]-3-carboxamide [Example 648]”: the IC50 with DLD1 BRCA2 (−/−) cells was 0.001 to 0.1 µM; with DLD1 WT cells, ≥ 10 µM.
Take “2′-chloro-N-(5-(6-chloro-5-fluoropicolinoyl)-5,6-dihydro-4H-pyrrolo[3,4-d]thiazol-2-yl)-5′-methoxy-6-methyl-[4,4′-bipyridine]-3-carboxamide [Example 388]”: the IC50 in the assay with DLD1 BRCA2 (−/−) cells is 0.001 to 0.1 µM; with DLD1 WT cells, 2 to 5 µM.
On to “4-(5-Cyano-2-methoxyphenyl)-N-(5-(3-(difluoromethyl)-4-methoxybenzoyl)-5,6-dihydro-4H-pyrrolo[3,4-d]thiazol-2-yl)-6-methylnicotinamide [Example 486]”, for which the IC50 with DLD1 BRCA2 (−/−) cells was 0.001 to 0.1 µM; with DLD1 WT cells it was ≥ 10 µM.
Turning to `COc1cnc(Cl)cc1-c1cc(C)ncc1C(=O)Nc1nc2c(s1)CN(C(=O)c1ncc(Cl)c(C(F)F)n1)C2` (racemic), the IC50 in the assay on DLD1 BRCA2 (−/−) cells (Homo sapiens, DLD-1, 168 h) was 0.25 to 0.5 µM; in the assay on DLD1 WT cells (Homo sapiens, DLD-1, 168 h), ≥ 10 µM.
For `COc1cnc(Cl)cc1-c1cc(C)ncc1C(=O)Nc1nc2c(s1)CN(C(=O)c1ncc(C(F)F)nc1C)C2` (racemic) the same measures were 0.25 to 0.5 µM and ≥ 10 µM.
With `COc1cnc(Cl)cc1-c1cc(C)ncc1C(=O)Nc1nc2c(s1)CN(C(=O)c1cc(C)cc(Cl)n1)C2` [Example 392, 2′-chloro-N-(5-(6-chloro-4-methylpicolinoyl)-5,6-dihydro-4H-pyrrolo[3,4-d]thiazol-2-yl)-5′-methoxy-6-methyl-[4,4′-bipyridine]-3-carboxamide], the IC50 is 0.1 to 0.25 µM in the assay with DLD1 BRCA2 (−/−) cells (Homo sapiens, DLD-1, 168 h) and ≥ 10 µM in the assay with DLD1 WT cells (Homo sapiens, DLD-1, 168 h).
For `COc1cnc(Cl)cc1-c1cc(C)ncc1C(=O)Nc1nc2c(s1)CN(C(=O)c1cccc(OC)c1Cl)C2` [Example 396, 2′-chloro-N-(5-(2-chloro-3-methoxybenzoyl)-5,6-dihydro-4H-pyrrolo[3,4-d]thiazol-2-yl)-5′-methoxy-6-methyl-[4,4′-bipyridine]-3-carboxamide], the IC50 is 0.001 to 0.1 µM with DLD1 BRCA2 (−/−) cells (Homo sapiens, DLD-1, 168 h) and ≥ 10 µM in the assay with DLD1 WT cells (Homo sapiens, DLD-1, 168 h).
As for `COc1ncc(Cl)cc1-c1cc(C)ncc1C(=O)Nc1nc2c(s1)CN(C(=O)c1ccc(C(F)F)cn1)C2` [Example 446, 5-Chloro-N-(5-(5-(difluoromethyl)picolinoyl)-5,6-dihydro-4H-pyrrolo[3,4-d]thiazol-2-yl)-2-methoxy-6′-methyl-[3,4′-bipyridine]-3′-carboxamide], the half-inhibitory concentration (IC50) in the assay on DLD1 BRCA2 (−/−) cells (Homo sapiens, DLD-1, 168 h) fell in the range of 0.001 to 0.1 µM; in the assay with DLD1 WT cells (Homo sapiens, DLD-1, 168 h), 2 to 5 µM.
For `COc1cnc(Cl)cc1-c1cc(C)ncc1C(=O)Nc1nc2c(s1)CN(C(=O)c1ccc(C#N)cn1)C2` [Example 578], the half-inhibitory concentration (IC50) in the assay on DLD1 BRCA2 (−/−) cells (Homo sapiens, DLD-1, 168 h) was 0.001 to 0.1 µM; in the assay with DLD1 WT cells (Homo sapiens, DLD-1, 168 h), 5 to 10 µM.
For `COc1cnc(Cl)cc1-c1cc(C)ncc1C(=O)Nc1nc2c(s1)CN(C(=O)c1cc(C)c(C#N)cn1)C2` [Example 611], the IC50 with DLD1 BRCA2 (−/−) cells (Homo sapiens, DLD-1, 168 h) is 0.001 to 0.1 µM; in the assay with DLD1 WT cells (Homo sapiens, DLD-1, 168 h), ≥ 10 µM.
Regarding `COc1cnc(Cl)cc1-c1cc(C)ncc1C(=O)Nc1nc2c(s1)CN(C(=O)c1nc(C)c(C(F)F)cc1F)C2` [Example 621], the IC50 was 0.001 to 0.1 µM with DLD1 BRCA2 (−/−) cells (Homo sapiens, DLD-1, 168 h) and ≥ 10 µM in the assay with DLD1 WT cells (Homo sapiens, DLD-1, 168 h).
On to `COc1cnc(Cl)cc1-c1cc(C)ncc1C(=O)Nc1nc2c(s1)CN(C(=O)c1nc(C)c(Cl)nc1C)C2` [Example 622], for which the IC50 in the assay with DLD1 BRCA2 (−/−) cells (Homo sapiens, DLD-1, 168 h) is 0.001 to 0.1 µM; in the assay on DLD1 WT cells (Homo sapiens, DLD-1, 168 h) it was ≥ 10 µM.
As for `COc1cnc(Cl)cc1-c1cc(C)ncc1C(=O)Nc1nc2c(s1)CN(C(=O)c1c(C)cc(C(F)(F)F)nc1C)C2` [Example 649], the IC50 in the assay with DLD1 BRCA2 (−/−) cells (Homo sapiens, DLD-1, 168 h) was 0.001 to 0.1 µM; in the assay on DLD1 WT cells (Homo sapiens, DLD-1, 168 h) it was ≥ 10 µM.
The like results for `COc1cnc(Cl)cc1-c1cc(C)ncc1C(=O)Nc1nc2c(s1)CN(C(=O)c1cc(C)c(C(F)F)cn1)C2` [Example 903, 2′-chloro-N-(5-(5-(difluoromethyl)-4-methylpicolinoyl)-5,6-dihydro-4H-pyrrolo[3,4-d]thiazol-2-yl)-5′-methoxy-6-methyl-[4,4′-bipyridine]-3-carboxamide] were, in that order, 0.001 to 0.1 µM and ≥ 10 µM.
With `COc1cnc(Cl)cc1-c1cc(C)ncc1C(=O)Nc1nc2c(s1)CN(C(=O)c1ncc(C)nc1OC)C2` [Example 905, 2′-chloro-5′-methoxy-N-(5-(3-methoxy-5-methylpyrazine-2-carbonyl)-5,6-dihydro-4H-pyrrolo[3,4-d]thiazol-2-yl)-6-methyl-[4,4′-bipyridine]-3-carboxamide], the IC50 in the assay with DLD1 BRCA2 (−/−) cells (Homo sapiens, DLD-1, 168 h) was 0.001 to 0.1 µM; in the assay with DLD1 WT cells (Homo sapiens, DLD-1, 168 h) it was ≥ 10 µM.
For the molecule `COc1cnc(Cl)cc1-c1cc(C)ncc1C(=O)Nc1nc2c(s1)CN(C(=O)c1ncc(C(F)F)c(OC)n1)C2` [Example 907, 2′-chloro-N-(5-(5-(difluoromethyl)-4-methoxypyrimidine-2-carbonyl)-5,6-dihydro-4H-pyrrolo[3,4-d]thiazol-2-yl)-5′-methoxy-6-methyl-[4,4′-bipyridine]-3-carboxamide], the IC50 with DLD1 BRCA2 (−/−) cells (Homo sapiens, DLD-1, 168 h) was 0.001 to 0.1 µM; with DLD1 WT cells (Homo sapiens, DLD-1, 168 h), ≥ 10 µM.
For `COc1cnc(Cl)cc1-c1cc(C)ncc1C(=O)Nc1nc2c(s1)CN(C(=O)[C@H]1CC[C@H](C(F)F)CC1)C2` [Example 908, 2′-chloro-N-(5-((1r,4r)-4-(difluoromethyl)cyclohexane-1-carbonyl)-5,6-dihydro-4H-pyrrolo[3,4-d]thiazol-2-yl)-5′-methoxy-6-methyl-[4,4′-bipyridine]-3-carboxamide] the same measures were 0.001 to 0.1 µM and ≥ 10 µM.
For `COc1cnc(Cl)cc1-c1cc(C)ncc1C(=O)Nc1nc2c(s1)CN(C(=O)[C@H]1CC[C@@H](C(F)F)CC1)C2` [Example 909, 2′-chloro-N-(5-((1s,4s)-4-(difluoromethyl)cyclohexane-1-carbonyl)-5,6-dihydro-4H-pyrrolo[3,4-d]thiazol-2-yl)-5′-methoxy-6-methyl-[4,4′-bipyridine]-3-carboxamide] the same measures were 0.001 to 0.1 µM and ≥ 10 µM.
For `Cc1cc(-c2cc(Cl)ncc2OC(F)F)c(C(=O)Nc2nc3c(s2)CN(C(=O)c2ncc(Cl)cn2)C3)cn1` [Example 910, 2′-chloro-N-(5-(5-chloropyrimidine-2-carbonyl)-5,6-dihydro-4H-pyrrolo[3,4-d]thiazol-2-yl)-5′-(difluoromethoxy)-6-methyl-[4,4′-bipyridine]-3-carboxamide] the same measures were 0.001 to 0.1 µM and ≥ 10 µM.
Take `Cc1cc(-c2cc(Cl)ncc2OC(F)F)c(C(=O)Nc2nc3c(s2)CN(C(=O)c2nc(C(F)F)ccc2Cl)C3)cn1` [Example 922, 2′-chloro-N-(S-(3-chloro-6-(difluoromethyl)picolinoyl)-5,6-dihydro-4H-pyrrolo[3,4-d]thiazol-2-yl)-5′-(difluoromethoxy)-6-methyl-[4,4′-bipyridine]-3-carboxamide]: the IC50 is 0.001 to 0.1 µM in the assay on DLD1 BRCA2 (−/−) cells (Homo sapiens, DLD-1, 168 h) and ≥ 10 µM with DLD1 WT cells (Homo sapiens, DLD-1, 168 h).
For `COc1cnc(Cl)cc1-c1cc(C)ncc1C(=O)Nc1nc2c(s1)CN(C(=O)c1ccc(C(F)(F)F)nc1Cl)C2` [Example 923, 2′-chloro-N-(5-(2-chloro-6-(trifluoromethyl)nicotinoyl)-5,6-dihydro-4H-pyrrolo[3,4-d]thiazol-2-yl)-5′-methoxy-6-methyl-[4,4′-bipyridine]-3-carboxamide] the same measures were 0.001 to 0.1 µM and ≥ 10 µM.
